Literature values as cited in patent US20260069708A1 (priority 2022, published 2026).

Details: reportedly

## COc1cccc2c1C(=O)c1c(O)c3c(c(O)c1C2=O)C[C@@](O)(C(=O)CO)C[C@@H]3O[C@H]1C[C@H](N)[C@H](O)[C@H](C)O1 [Dox, doxorubicin]
  fold lower IC50 than irinotecan: 10-100 fold
